The source of these data is US20250064941A1, “SIGLEC LIGANDS, CONJUGATES, AND METHODS OF USE THEREOF” (Osprey Biopharmaceuticals, Inc., priority 2023, published 2025).

Experiment [1] concerns the target T1, mouse Siglec-2-Fc-Avi (CD22) (Mus musculus, UniProt P35329).
T1 construct: made in house
T1 sequence (P35329 22-708 limits assumed): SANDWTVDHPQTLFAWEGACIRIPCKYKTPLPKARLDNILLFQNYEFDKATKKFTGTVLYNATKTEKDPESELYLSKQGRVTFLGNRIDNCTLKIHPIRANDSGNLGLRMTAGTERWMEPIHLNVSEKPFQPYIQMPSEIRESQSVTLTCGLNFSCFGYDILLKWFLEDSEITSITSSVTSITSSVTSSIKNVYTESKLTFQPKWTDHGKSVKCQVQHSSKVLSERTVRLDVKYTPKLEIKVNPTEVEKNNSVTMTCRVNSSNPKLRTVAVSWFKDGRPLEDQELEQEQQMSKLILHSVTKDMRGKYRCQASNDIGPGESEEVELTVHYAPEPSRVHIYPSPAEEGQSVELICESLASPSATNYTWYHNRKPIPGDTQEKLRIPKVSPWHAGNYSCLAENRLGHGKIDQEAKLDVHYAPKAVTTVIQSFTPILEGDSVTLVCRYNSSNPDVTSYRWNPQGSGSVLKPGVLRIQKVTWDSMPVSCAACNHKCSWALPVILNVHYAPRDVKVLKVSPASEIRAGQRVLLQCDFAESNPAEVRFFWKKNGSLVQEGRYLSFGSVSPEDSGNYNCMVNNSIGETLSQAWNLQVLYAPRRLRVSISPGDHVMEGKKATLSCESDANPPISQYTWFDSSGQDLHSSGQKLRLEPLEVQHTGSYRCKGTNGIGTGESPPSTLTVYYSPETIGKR
Kind of experiment: SPR binding affinity to mouse CD22. The following applies: steady-state analysis. An outline of the steps:
(§1)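 Native sialic acid residues are removed from the receptor enzymatically (4 hours at 37° C.) prior to streptavidin capture of the biotinylated protein. Ligand compounds then flow over in HEPES-buffered saline, pH 7.5, containing 0.05% Tween-20 and 1% DMSO, and binding is evaluated at steady state.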

Another experiment concerns the target cynomolgus Siglec-2/CD22 (Macaca fascicularis, UniProt A0A2K5WCZ6). Kind of experiment: biochemical. The class given is binding. The settings on record: SPR, steady-state analysis; read-out: Affinity cyno CD22. An outline of the steps: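 Compound binding measured by steady-state SPR analysis, 120 s dissociation, in HEPES-NaCl-Tween buffer pH 7.5 containing 1% DMSO, DMSO solvent-corrected. Surface: cyno CD22, sialic acids first stripped by SialoExo for 4 h at 37° C., then amine-coupled onto CM5.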

Experiment [2] concerns the target T2, human Siglec-2/CD22 protein (Homo sapiens, UniProt P20273).
T2 construct: purchased Acro Biosystems SI2-H82E3
T2 sequence (P20273 20-847): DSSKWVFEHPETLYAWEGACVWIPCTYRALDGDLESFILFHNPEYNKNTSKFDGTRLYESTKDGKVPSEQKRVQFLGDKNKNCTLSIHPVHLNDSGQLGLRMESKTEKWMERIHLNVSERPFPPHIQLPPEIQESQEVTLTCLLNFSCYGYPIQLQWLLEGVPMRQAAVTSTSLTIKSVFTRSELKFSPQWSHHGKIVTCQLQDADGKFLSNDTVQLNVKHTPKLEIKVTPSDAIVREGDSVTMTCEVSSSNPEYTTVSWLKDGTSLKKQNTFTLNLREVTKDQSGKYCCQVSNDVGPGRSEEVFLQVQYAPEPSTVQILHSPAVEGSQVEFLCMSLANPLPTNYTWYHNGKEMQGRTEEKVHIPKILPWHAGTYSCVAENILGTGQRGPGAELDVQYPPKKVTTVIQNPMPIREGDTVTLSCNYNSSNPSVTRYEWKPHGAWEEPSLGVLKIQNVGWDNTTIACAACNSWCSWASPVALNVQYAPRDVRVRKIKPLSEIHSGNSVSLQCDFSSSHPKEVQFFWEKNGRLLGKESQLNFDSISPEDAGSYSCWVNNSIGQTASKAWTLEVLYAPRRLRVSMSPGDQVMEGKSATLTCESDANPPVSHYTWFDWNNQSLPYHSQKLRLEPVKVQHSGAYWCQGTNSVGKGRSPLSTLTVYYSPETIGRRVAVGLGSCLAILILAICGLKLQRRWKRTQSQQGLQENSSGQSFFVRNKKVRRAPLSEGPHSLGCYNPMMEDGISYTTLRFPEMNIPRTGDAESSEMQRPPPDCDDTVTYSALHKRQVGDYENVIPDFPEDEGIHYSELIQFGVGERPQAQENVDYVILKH
Kind of experiment: SPR binding affinity to human CD22. The settings on record: steady-state analysis. An outline of the steps:
as §1

Some results are limits rather than exact numbers.

cynomolgus Siglec-2/CD22, sequence (A0A2K5WCZ6 entry or part of it): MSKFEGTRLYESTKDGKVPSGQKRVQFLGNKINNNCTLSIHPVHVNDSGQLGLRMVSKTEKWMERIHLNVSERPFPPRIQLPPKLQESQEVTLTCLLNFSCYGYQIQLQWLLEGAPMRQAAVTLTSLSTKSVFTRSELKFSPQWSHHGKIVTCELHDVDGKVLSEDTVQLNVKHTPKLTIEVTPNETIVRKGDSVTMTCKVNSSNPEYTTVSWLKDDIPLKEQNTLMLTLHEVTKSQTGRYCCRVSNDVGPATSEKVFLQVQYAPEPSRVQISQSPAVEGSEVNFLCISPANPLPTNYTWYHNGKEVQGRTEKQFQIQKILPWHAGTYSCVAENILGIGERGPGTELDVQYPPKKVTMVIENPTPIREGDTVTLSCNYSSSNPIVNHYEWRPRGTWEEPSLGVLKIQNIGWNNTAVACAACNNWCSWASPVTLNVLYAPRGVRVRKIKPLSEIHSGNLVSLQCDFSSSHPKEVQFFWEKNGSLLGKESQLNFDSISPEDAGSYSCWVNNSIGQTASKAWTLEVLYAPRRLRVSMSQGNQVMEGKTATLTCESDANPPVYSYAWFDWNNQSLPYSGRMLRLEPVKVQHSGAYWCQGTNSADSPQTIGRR

Turning to `CC(=O)NCCOCCOCCOCCOCCNC(=O)CCCCCCO[C@]1(C(=O)O)C[C@H](O)[C@@H](NC(=O)CO)[C@H]([C@H](O)[C@H](O)CNC(=O)Cc2ccc(Cl)cc2)O1` [Compound 264, (2R,4S,5R,6R)-6-((1R,2R)-3-(2-(4-chlorophenyl)acetamido)-1,2-dihydroxypropyl)-2-((2,19-dioxo-6,9,12,15-tetraoxa-3,18-diazapentacosan-25-yl)oxy)-4-hydroxy-5-(2-hydroxyacetamido) tetrahydro-2H-pyran-2-carboxylic acid], the Kd was 1000 to 10000 nM in experiment [1], < 1000 nM on cynomolgus Siglec-2/CD22 and < 1000 nM in experiment [2].
In the case of `CC(=O)NCCOCCOCCOCCOCCC(=O)NCCCCCCO[C@]1(C(=O)O)C[C@H](O)[C@@H](NC(C)=O)[C@H]([C@H](O)[C@H](O)CNC(=O)c2cccc(Cl)c2)O1` [Compound 271, (2R,4S,5R,6R)-5-acetamido-6-((1R,2R)-3-(3-chlorobenzamido)-1,2-dihydroxypropyl)-2-((2,18-dioxo-6,9,12,15-tetraoxa-3,19-diazapentacosan-25-yl)oxy)-4-hydroxytetrahydro-2H-pyran-2-carboxylic acid], the results for the Kd (in experiment [1]; on cynomolgus Siglec-2/CD22; in experiment [2]) were > 10000 nM, 1000 to 10000 nM and 1000 to 10000 nM, respectively.
`CC(=O)NCCOCCOCCOCCOCCn1cc(CCCCCCO[C@]2(C(=O)O)C[C@H](O)[C@@H](NC(C)=O)[C@H]([C@H](O)[C@H](O)CNC(=O)c3cccc(Cl)c3)O2)nn1` [Compound 272, (2R,4S,5R,6R)-5-acetamido-6-((1R,2R)-3-(3-chlorobenzamido)-1,2-dihydroxypropyl)-4-hydroxy-2-((6-(1-(2-oxo-6,9,12,15-tetraoxa-3-azaheptadecan-17-yl)-1H-1,2,3-triazol-4-yl)hexyl)oxy)tetrahydro-2H-pyran-2-carboxylic acid]: the figures for the Kd (in experiment [1]; on cynomolgus Siglec-2/CD22; in experiment [2]) were > 10000 nM, 1000 to 10000 nM and 1000 to 10000 nM, respectively.
`CC(=O)NCCOCCOCCOCCOCCNc1c(NCCCCCCO[C@]2(C(=O)O)C[C@H](O)[C@@H](NC(C)=O)[C@H]([C@H](O)[C@H](O)CNC(=O)c3cccc(Cl)c3)O2)c(=O)c1=O` [Compound 273, (2R,4S,5R,6R)-5-acetamido-6-((1R,2R)-3-(3-chlorobenzamido)-1,2-dihydroxypropyl)-2-((6-((3,4-dioxo-2-((2-oxo-6,9,12,15-tetraoxa-3-azaheptadecan-17-yl)amino)cyclobut-1-en-1-yl)amino)hexyl)oxy)-4-hydroxytetrahydro-2H-pyran-2-carboxylic acid]: the Kd in experiment [1] was > 10000 nM; on cynomolgus Siglec-2/CD22, 1000 to 10000 nM; in experiment [2], 1000 to 10000 nM.
Regarding `CC(=O)NCCOCCOCCOCCOCCC(=O)NCCOCCOCCO[C@]1(C(=O)O)C[C@H](O)[C@@H](NC(C)=O)[C@H]([C@H](O)[C@H](O)CNC(=O)Cc2ccc(Cl)cc2)O1` [Compound 274, (2R,4S,5R,6R)-5-acetamido-6-((1R,2R)-3-(2-(4-chlorophenyl)acetamido)-1,2-dihydroxypropyl)-2-((2,18-dioxo-6,9,12,15,22,25-hexaoxa-3,19-diazaheptacosan-27-yl)oxy)-4-hydroxytetrahydro-2H-pyran-2-carboxylic acid], the Kd (in experiment [1]; at cynomolgus Siglec-2/CD22; in experiment [2]) was > 10000 nM in each case.
In the case of `C#CCOCCOCCNc1c(NCCCCCCO[C@]2(C(=O)O)C[C@H](O)[C@@H](NC(=O)CO)[C@H]([C@H](O)[C@H](O)CNC(=O)C(F)(F)c3ccccc3)O2)c(=O)c1=O` [Compound 275, (2R,4S,5R,6R)-6-((1R,2R)-3-(2,2-difluoro-2-phenylacetamido)-1,2-dihydroxypropyl)-2-((6-((3,4-dioxo-2-((2-(2-(prop-2-yn-1-yloxy)ethoxy)ethyl)amino)cyclobut-1-en-1-yl)amino)hexyl)oxy)-4-hydroxy-5-(2-hydroxyacetamido) tetrahydro-2H-pyran-2-carboxylic acid], the Kd in experiment [1] was 1000 to 10000 nM; on cynomolgus Siglec-2/CD22, < 1000 nM; in experiment [2] it was < 1000 nM.
With `C#CCOCCCCCCO[C@]1(C(=O)O)C[C@H](O)[C@@H](NC(N)=O)[C@H]([C@H](O)[C@H](O)CNC(=O)Cc2ccc(Cl)cc2)O1` [Cpd. 86, (2R,4S,5R,6R)-6-((1R,2R)-3-(2-(4-chlorophenyl)acetamido)-1,2-dihydroxypropyl)-4-hydroxy-2-((6-(prop-2-yn-1-yloxy)hexyl)oxy)-5-ureidotetrahydro-2H-pyran-2-carboxylic acid], the Kd was < 1000 nM in experiment [1], 1000 to 10000 nM on cynomolgus Siglec-2/CD22 and < 1000 nM in experiment [2].
For `C#CCOCCCCCCO[C@]1(C(=O)O)C[C@H](O)[C@@H](NC(=O)CO)[C@H]([C@H](O)[C@H](O)CNC(=O)Cc2ccc(C(C)C)cc2)O1` [Cpd. 159, (2R,4S,5R,6R)-6-((1R,2R)-1,2-dihydroxy-3-(2-(4-isopropylphenyl)acetamido)propyl)-4-hydroxy-5-(2-hydroxyacetamido)-2-((6-(prop-2-yn-1-yloxy)hexyl)oxy)tetrahydro-2H-pyran-2-carboxylic acid], the Kd (in experiment [1]; on cynomolgus Siglec-2/CD22; in experiment [2]) was < 1000 nM in each case.
`C#CCOCCNC(=O)CCCCCCO[C@]1(C(=O)O)C[C@H](O)[C@@H](NC(=O)CO)[C@H]([C@H](O)[C@H](O)CNC(=O)Cc2ccc(Cl)c(F)c2)O1` [Cpd. 214, (2R,4S,5R,6R)-6-((1R,2R)-3-(2-(4-chloro-3-fluorophenyl)acetamido)-1,2-dihydroxypropyl)-4-hydroxy-5-(2-hydroxyacetamido)-2-((7-oxo-7-((2-(prop-2-yn-1-yloxy)ethyl)amino)heptyl)oxy)tetrahydro-2H-pyran-2-carboxylic acid]: the Kd (in experiment [1]; on cynomolgus Siglec-2/CD22; in experiment [2]) was < 1000 nM throughout.
As for `CC(=O)NCCOCCOCCOCCOCCC(=O)NCCCCCCO[C@]1(C(=O)O)C[C@H](O)[C@@H](NC(=O)CO)[C@H]([C@H](O)[C@H](O)CNC(=O)Cc2ccc(-c3nnn[nH]3)cc2)O1` [Cpd. 235, (2R,4S,5R,6R)-6-((1R,2R)-3-(2-(4-(1H-tetrazol-5-yl)phenyl)acetamido)-1,2-dihydroxypropyl)-2-((2,18-dioxo-6,9,12,15-tetraoxa-3,19-diazapentacosan-25-yl)oxy)-4-hydroxy-5-(2-hydroxyacetamido)tetrahydro-2H-pyran-2-carboxylic acid], the Kd (in experiment [1]; at cynomolgus Siglec-2/CD22; in experiment [2]) was < 1000 nM in each case.
With `CC(=O)NCCOCCOCCOCCOCCC(=O)NCCCCCO[C@]1(C(=O)O)C[C@H](O)[C@@H](NC(=O)CO)[C@H]([C@H](O)[C@H](O)CNC(=O)Cc2ccc(Cl)cc2)O1` [Cpd. 241, (2R,4S,5R,6R)-6-((1R,2R)-3-(2-(4-chlorophenyl)acetamido)-1,2-dihydroxypropyl)-2-((2,18-dioxo-6,9,12,15-tetraoxa-3,19-diazatetracosan-24-yl)oxy)-4-hydroxy-5-(2-hydroxyacetamido) tetrahydro-2H-pyran-2-carboxylic acid], the Kd was 1000 to 10000 nM in experiment [1], < 1000 nM at cynomolgus Siglec-2/CD22 and < 1000 nM in experiment [2].
